Data published in patent US20260108514A1, “METHOD OF INHIBITING EPITHELIAL-MESENCHYMAL TRANSITION AND CANCER METASTASIS” (Agency for Science, Technology and Research, priority 2022, published 2026).
Structures can show the parent of a compound that is named as a salt.

How the values were obtained:
HMLE-ZEB1 cells = test: Validation of ZEB1-induced EMT inhibition (morphology); format: cell-based; conditions: Dox-induced HMLE-ZEB1, Kenpaullone 0.25 μM
Excerpt: A) Dual-Glo luciferase assay to test gene promoters that include CD44, CD166, CDH1 and SERPINE1 in Dox-induced HMLE-ZEB1 cells. Data are represented as ratio of mean Firefly luciferase (FF) and Renilla luciferase (Ren) readings; n=3. B) Dual-glo Luciferase assay of HMLE-ZEB1 screened with LOPAC library. Data are represented as ratio of mean Firefly luciferase (FF) and Renilla luciferase (Ren) readings, n=3. Hits are circled in red. C) Average Z-score of Dual-glo Luciferase assay in HMLE-ZEB1 cells screened with LOPAC library; n=4. D) Validation of screening hits by Dual-glo Luciferase assay in HMLE-ZEB1 screened with LOPAC library by primary and secondary screens. […] Bottom, Fluorescence activated sorting analysis (FACS) of CD44 and CD24 staining in Dox induced HMLE-ZEB1 cells in presence or absence of Ken. […] Top, Representative fluorescence images of whole-mount of lung and second, histology of lung sections. […] I) Total number of metastasis as counted from whole mount of lung in mice implanted with in shControl and shGSK3β cells. n=3-5 for each group. **P<0.01 and ***P<0.001 as determined by as determined by one-way ANOVA with Dunnet's multiple comparison test. All data are presented as mean+/−SEM. *P<0.05, **P<0.01, ***P<0.001 and ****P<0.0001, not significant (ns) as determined by unpaired two-tailed t-test unless otherwise stated. […]

[1] = test system: HMLE-ZEB1 cells (CDH1prom-luc reporter, Dox-induced ZEB1 driven EMT); test: Dual-Glo luciferase CDH1prom-luc reporter screen of LOPAC and bioactive lipid library; format: cell-based; conditions: ratio Firefly (CDH1prom-luc) / Renilla luciferase, normalized to DMSO = 1; primary screen
Excerpt: FIG. 1: Design of a cell-based reporter assay. Doxycycline (Dox)-induced ZEB1 driven EMT (HMLE-ZEB1 cells) was used to conduct high-throughput screen for identifying inhibitors of epithelial-mesenchymal transition.
A) Dual-Glo luciferase assay to test gene promoters that include CD44, CD166, CDH1 and SERPINE1 in Dox-induced HMLE-ZEB1 cells. Data are represented as ratio of mean Firefly luciferase (FF) and Renilla luciferase (Ren) readings; n=3. B) Dual-glo Luciferase assay of HMLE-ZEB1 screened with LOPAC library. Data are represented as ratio of mean Firefly luciferase (FF) and Renilla luciferase (Ren) readings, n=3. Hits are circled in red. C) Average Z-score of Dual-glo Luciferase assay in HMLE-ZEB1 cells screened with LOPAC library; n=4. D) Validation of screening hits by Dual-glo Luciferase assay in HMLE-ZEB1 screened with LOPAC library by primary and secondary screens. E) Hits from secondary screen validated at different concentrations 5, 1.66, 0.55, 0.18 and 0.06 μM. N=3 F) Validation of the screening hits by CDH1 gene expression. n=3. G) Top, Phase-contrast images of morphological changes of HMLE-ZEB1 cells in DMSO and Dox-treated cells in presence or absence of Kenpaullone (0.25 μM) (DMSO, Dox, Ken, and Dox+Ken). Scale represents 100 μm. Second, Immunofluorescence staining of epithelial marker E-Cadherin (ECAD) and mesenchymal marker Vimentin in DMSO, Dox, Ken and Dox+Ken treated cells. Scale represents 50 μm. Bottom, Fluorescence activated sorting analysis (FACS) of CD44 and CD24 staining in Dox induced HMLE-ZEB1 cells in presence or absence of Ken. Numbers within graph represent percentages of gated cells indicating CD44high CD24low (above) and CD44lowCD24high cells (below). H) TdTomato-labelled MCF7-SLUG+SOX9 cells that were injected orthotopically into the mammary fat pads and induced by Doxycycline (+Dox) to express SLUG and SOX9 to promote metastasis in shControl and shGSK3β cells. Top, Representative fluorescence images of whole-mount of lung and second, histology of lung sections. Scale bar represents 100 μm. Third, Tumors were stained for GSK3β and counterstained with hematoxylin. Scale bar represents 100 μm. Fourth, primary tumors were also stained for E-cadherin, Fibronectin and DAPI. Scale bar represents 50 μm. n=3-5 mice for each group. I) Total number of metastasis as counted from whole mount of lung in mice implanted with in shControl and shGSK3β cells. n=3-5 for each group. **P<0.01 and ***P<0.001 as determined by as determined by one-way ANOVA with Dunnet's multiple comparison test. All data are presented as mean+/−SEM. *P<0.05, **P<0.01, ***P<0.001 and ****P<0.0001, not significant (ns) as determined by unpaired two-tailed t-test unless otherwise stated.
FIG. 3: Identification of inhibitors of epithelial-mesenchymal transition from high-throughput screening of bioactive lipid library with the screening platform. A) Dual-glo Luciferase assay of HMLE-ZEB1 screened with bioactive lipid library. Data are represented as ratio of mean Firefly luciferase (FF) and Renilla luciferase (Ren) readings, n=3. Hits are circled in red. B) Average Z-score of Dual-glo Luciferase assay in HMLE-ZEB1 cells screened with bioactive lipid library; n=4. Compounds shown in red indicates top hits. C) Protein expression of EMT markers E-cadherin, Fibronectin Vimentin and Snail in DMSO and 4-OHT induced cells treated with and without Cay10603 (10 nM) in HMLE-TWIST. GAPDH was used as a loading control. D) (First)Morphological evidence and (second) Fluorescence activated sorting analysis (FACS) of CD44 and CD24 staining in DMSO, 4-OHT, CAY10603 and 4-OHT+CAY10603 treated cells. Numbers within graph represent percentages of gated cells indicating CD44highCD24low (above) and CD44lowCD24high cells (below). E) Representative bright-field images and quantification of DMSO,4-OHT, CAY,4-OHT+CAY treated cells as shown by of scratch wound migration assay before and after 6 h of scratch in presence or absence of 4-OHT-induced EMT. […]

HMLE-TWIST cells [2] = test: Scratch wound migration assay in 4-OHT-induced EMT; format: cell-based; conditions: 6 h after scratch
Excerpt: (§1) FIG. 3: Identification of inhibitors of epithelial-mesenchymal transition from high-throughput screening of bioactive lipid library with the screening platform. A) Dual-glo Luciferase assay of HMLE-ZEB1 screened with bioactive lipid library. Data are represented as ratio of mean Firefly luciferase (FF) and Renilla luciferase (Ren) readings, n=3. Hits are circled in red. B) Average Z-score of Dual-glo Luciferase assay in HMLE-ZEB1 cells screened with bioactive lipid library; n=4. Compounds shown in red indicates top hits. C) Protein expression of EMT markers E-cadherin, Fibronectin Vimentin and Snail in DMSO and 4-OHT induced cells treated with and without Cay10603 (10 nM) in HMLE-TWIST. […] D) (First)Morphological evidence and (second) Fluorescence activated sorting analysis (FACS) of CD44 and CD24 staining in DMSO, 4-OHT, CAY10603 and 4-OHT+CAY10603 treated cells. […] E) Representative bright-field images and quantification of DMSO,4-OHT, CAY,4-OHT+CAY treated cells as shown by of scratch wound migration assay before and after 6 h of scratch in presence or absence of 4-OHT-induced EMT. […] F) (First) Representative images of whole-mount fluorescence lung image and (Second) histology of lung sections. […] All data are presented as mean+/−SEM. *P<0.05, **P<0.01, ***P<0.001 and ****P<0.0001, not significant (ns) as determined by unpaired two-tailed t-test unless otherwise stated. […]

HMLE-TWIST cells [3] = test: TWIST (4-OHT)-induced EMT: markers, morphology, CD44/CD24 FACS, acetylated tubulin; format: cell-based; conditions: 4-OHT induced HMLE-TWIST
Excerpt: as §1

MCF7-SLUG+SOX9 cells = test: MCF7-SLUG+SOX9 orthotopic xenograft, EMT-dependent lung metastasis; format: in vivo, NSG mice
Excerpt: FIG. 3: Identification of inhibitors of epithelial-mesenchymal transition from high-throughput screening of bioactive lipid library with the screening platform. A) Dual-glo Luciferase assay of HMLE-ZEB1 screened with bioactive lipid library. Data are represented as ratio of mean Firefly luciferase (FF) and Renilla luciferase (Ren) readings, n=3. Hits are circled in red. B) Average Z-score of Dual-glo Luciferase assay in HMLE-ZEB1 cells screened with bioactive lipid library; n=4. Compounds shown in red indicates top hits. C) Protein expression of EMT markers E-cadherin, Fibronectin Vimentin and Snail in DMSO and 4-OHT induced cells treated with and without Cay10603 (10 nM) in HMLE-TWIST. GAPDH was used as a loading control. D) (First)Morphological evidence and (second) Fluorescence activated sorting analysis (FACS) of CD44 and CD24 staining in DMSO, 4-OHT, CAY10603 and 4-OHT+CAY10603 treated cells. Numbers within graph represent percentages of gated cells indicating CD44highCD24low (above) and CD44lowCD24high cells (below). E) Representative bright-field images and quantification of DMSO,4-OHT, CAY,4-OHT+CAY treated cells as shown by of scratch wound migration assay before and after 6 h of scratch in presence or absence of 4-OHT-induced EMT. Images were taken at 4× magnification. Scale bar represents 100 μm. F) (First) Representative images of whole-mount fluorescence lung image and (Second) histology of lung sections. Scale bar represents 100 μm. (Third)Tumors were stained for HDAC6 and counterstained with hematoxylin. Scale bar represents 100 μm. (Fourth) Primary tumors were also stained for E-cadherin, Fibronectin and DAPI. Scale bar represents 50 μm. n=4 mice for each group. G) Total number of metastasis as counted from whole mount of lung with −Dox, +Dox and ACY-1215+Dox treatment. n=3-4 for each group. **P<0.01 as determined by as determined by one-way ANOVA with Dunnet's multiple comparison test. All data are presented as mean+/−SEM. *P<0.05, **P<0.01, ***P<0.001 and ****P<0.0001, not significant (ns) as determined by unpaired two-tailed t-test unless otherwise stated.
FIG. 4. Disruption of microtubule depolymerization through HDAC6 inhibition and GSK3β inhibition restricts EMT. A) Top, Phase-contrast images of morphological changes in DMSO and 4-OHT induced cells treated with Ken, ACY-1215 and combination of both in HMLE-TWIST. Arrows represent cells growing as epithelial clusters. Scale represents 100 μm. Second, Immunofluorescence staining of acetylated α-tubulin in DMSO, Ken+ACY-1215, 4-OHT, ACY-1215+4-OHT, Ken+4-OHT and Ken+ACY-1215+4-OHT treated cells. Scale represents 50 μm. (Third) Fluorescence activated sorting analysis (FACS) of CD44 and CD24 staining in DMSO, Ken+ACY-1215, 4-OHT, ACY-1215+4-OHT, Ken+4-OHT and Ken+ACY-1215+4-OHT treated cells. […] C) Quantification of protein expression for DMSO, Ken+ACY, 4-OHT, ACY+4-OHT, Ken+4-OHT and Ken+ACY+4-OHT treated HMLE-TWIST cells (n=3). […] E) Quantification of percentage area closure in DMSO, Ken+ACY-1215, 4-OHT, ACY-1215+4-OHT, Ken+4-OHT and Ken+ACY-1215+4-OHT treated HMLE-TWIST cells. Graph represents mean+/−SEM of n=4. *P<0.05 and **P<0.01 as determined by unpaired t-test (two-tailed) by Welch's correction. F) Total number of metastasis as counted from whole mount of lung in mice implanted with shControl and shGSK3β cells treated with ACY-1215 in presence or absence of Dox treatment (n=3-4). […]

Compound	DMSO normalized FF/RL(DMSO = 1) [1]	also measured
O=C1Cc2c([nH]c3ccc(Br)cc23)-c2ccccc2N1 [Kenpaullone]	0.8715	inhibition of ZEB1-induced EMT (retention of epithelial morphology) (HMLE-ZEB1 cells): able to inhibit ZEB1-induced EMT
CC(C)(C)OC(=O)Nc1ccc(-c2cc(C(=O)NCCCCCCC(=O)NO)no2)cc1 [CAY 10603]	0.33	acquisition of migration ability, wound-healing assay (HMLE-TWIST cells [2]): blocked the acquisition of migration ability; epithelial morphology and CD44 expression (FACS) (HMLE-TWIST cells [3]): retained epithelial morphology along with the block in gain of CD44 expression to some extent; inhibition of TWIST-driven EMT (retention of E-cadherin, no gain of mesenchymal markers) (HMLE-TWIST cells [3]; Cay10603 10 nM, protein expression): able to inhibit EMT
COc1cccc(-c2cc(=O)c3ccccc3o2)c1N [PD 98,059]	0.4592	
Nc1ccc(-c2ccc3ccccc3n2)cc1 [BF-170 hydrochloride]	0.5174	
O=c1cc(-c2ccc(O)cc2)oc2cc(O)cc(O)c12 [Apigenin]	0.5787	
COc1ccc(/C=C/C(=O)Nc2ccccc2C(=O)O)cc1OC [Tranilast]	0.4527	
Oc1cc(O)cc(/C=C/c2ccc(O)c(O)c2)c1 [Piceatannol]	0.6253	
CCCCCCCCCCCCCCCCCCOC[C@H](COP(=O)([O-])OCC[N+](C)(C)C)OC [2-O-methyl PAF C-18]	0.35	
Cc1ccc(C(=O)Cn2c3c(sc2=N)CCCC3)cc1 [Pifithrin-α]	0.348	
Cc1cc(O)c2c(c1)C(=O)c1cc(O)cc(O)c1C2=O [Emodin]	0.6268	
CCc1ccc(/C=C2/SC(=S)NC2=O)cc1 [10058-F4]	0.5631	
O=c1c2ccccc2nc2n1CCc1c-2[nH]c2ccccc12 [Rutaecarpine]	0.5597	
O=C(CCCCCCNC(=O)c1cnc(N(c2ccccc2)c2ccccc2)nc1)NO [ACY-1215, ricolinostat]		lung metastatic lesions (MCF7-SLUG+SOX9 cells; ACY-1215 50 mg/kg i.p. + Dox vs Dox-fed mice, 10 weeks after doxycycline): significantly reduced lung metastatic lesions; metastatic lesions in the lungs, shControl group (MCF7-SLUG+SOX9 cells; shControl cells, Dox induction, ACY-1215 treatment): reduced; metastatic lesions in the lungs, shGSK3β group (MCF7-SLUG+SOX9 cells; shGSK3β cells, ACY-1215 treatment, compared to Dox-fed shControl mice): reduced metastatic lesions most dramatically; tumor burden (MCF7-SLUG+SOX9 cells; shGSK3β group treated with ACY-1215 vs Dox-fed shControl): non-significant changes in tumor burden; EMT activation in primary tumors (higher HDAC6 and Fibronectin, low E-Cadherin) (MCF7-SLUG+SOX9 cells; tumors of ACY-1215+Dox mice vs Dox-fed mice): strikingly absent
